Measurements taken from ChEMBL document CHEMBL1201862, “PubChem BioAssay data set” (2004).
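Each compound was tested at five concentrations against cells in 96-well plates for 48 hours. The concentration for 50% growth inhibition is given as GI50.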 Active and inactive are the calls of the source. Rule as the data show it: active = GI50 up to about 1.1 µM and inactive = higher.

How the values were obtained:
Experiment in all cases: growth of human tumour cells (NCI), 48 h
BT-549 = test system: BT-549
MDA-N = test system: MDA-N
PC-3 = test system: PC-3
TK-10 = test system: TK-10
KM-20L2 = test system: KM-20L2
MDA-MB-435 = test system: MDA-MB-435
HOP-18 = test system: HOP-18
RXF 631 = test system: RXF 631

Measured: GI50

O=C(O)Cc1ccc(N2N=C(c3ccccc3)CC2=O)cc1
inactive: BT-549 > 100 µM | MDA-N > 100 µM | PC-3 > 100 µM | TK-10 > 100 µM

O=C1C(Cl)N(c2ccc([N+](=O)[O-])cc2)C1c1c[nH]c2ccccc12 (stereo unspecified)
inactive: KM-20L2 41.2 µM | TK-10 > 100 µM

CCCCSCCC(N)P(=O)(O)O (stereo unspecified)
inactive: MDA-MB-435 > 100 µM | MDA-N > 100 µM | PC-3 > 100 µM | TK-10 > 100 µM

Cc1nc2c(n1C)C(=O)c1nc(CBr)[nH]c(=O)c1C2=O
inactive: HOP-18 > 100 µM | KM-20L2 > 100 µM | TK-10 > 100 µM

COc1cccc(CC2Cc3ccccc3CC(=O)N2)c1 (stereo unspecified)
inactive: BT-549 28 µM | MDA-MB-435 32.7 µM | MDA-N 48.1 µM | PC-3 31 µM | TK-10 29.9 µM

COc1cccc(NC(=O)CC(=O)NN2C(=O)/C(=C/c3ccc(N(CCC#N)CCC#N)cc3)N=C2c2cc([N+](=O)[O-])ccc2Cl)c1
inactive: KM-20L2 25.8 µM | RXF 631 > 100 µM | TK-10 > 100 µM

CC(=O)Oc1ccccc1[C@H]1CC(=O)C[C@H](c2ccccc2OC(C)=O)C12C(=O)c1ccccc1C2=O
inactive: BT-549 24.9 µM | MDA-MB-435 14.7 µM | MDA-N 16 µM | PC-3 17.5 µM

Cc1[nH]c(=O)[nH]c(=O)c1/C=C/C(=O)NC(CO)CC(C)C (stereo unspecified)
inactive: HOP-18 254 µM | KM-20L2 88.1 µM

COc1ccc(CCn2nccc2C)cc1
inactive: BT-549 > 100 µM | MDA-MB-435 > 100 µM | MDA-N > 100 µM | PC-3 > 100 µM | TK-10 > 100 µM

COc1ccccc1NC(=O)C(=O)C(C(=O)c1ccccc1F)C1OC(=O)c2ccccc21 (stereo unspecified)
inactive: KM-20L2 24.9 µM | RXF 631 18.7 µM | TK-10 50 µM

CC1(Cl)CC2C(CC1Sc1nnnn1-c1ccccc1)C2(C)C (stereo unspecified)
inactive: KM-20L2 95.5 µM | TK-10 > 100 µM

Cc1ccc(SSCCCCCS(=O)O)cc1
inactive: RXF 631 25.9 µM | TK-10 26.9 µM

CSCC[C@@H](NC(=O)[C@H](CC(C)C)NC(=O)C(Cc1cnc[nH]1)NC(=O)CNC(=O)[C@@H](NC(=O)[C@H](C)NC(=O)[C@H](Cc1cn(C=O)c2ccccc12)NC(=O)[C@H](CCC(N)=O)NC(=O)[C@@H](N)CC(N)=O)C(C)C)C(N)=O (stereo partly specified)
inactive: HOP-18 > 100 µM | KM-20L2 > 100 µM

NCCCCCC(CCN)SCC1OC(n2cnc3c(N)ncnc32)C(O)C1O (stereo unspecified)
inactive: HOP-18 6.76 µM | KM-20L2 482 µM

COc1ccccc1-c1cc(O)c2cc(C)cnc2n1
inactive: BT-549 45.5 µM | MDA-MB-435 3.8 µM | TK-10 > 100 µM
